According to patent US20260325465A1, “SHP-1 INHIBITORS FOR TREATING CANCER” (MDX MANAGEMENT LLC, priority 2022, published 2026):

How the values were obtained:
[1] = tested on: PTP activity in macrophages; test: PTP activity in macrophages co-cultured with cancer cells and stimulated with IFNγ/LPS or TLR agonists; assay type: cell-based; design: concentration or dose not given beside the values; details: induced by IFNγ/LPS or TLR agonists, with cancer cell ligation, 30 min, 37 °C
Protocol: FIGS. 3A-3E depict modulation of SHP-1 activity in proinflammatory macrophages in cancer. Macrophages co-cultured with cancer cells were stimulated with IFNγ/LPS or TLR agonists (αTLR) comprising CpG, polycytidylic acid (i.e., PolyI:C) and R848 (each 0.4 μg/ml) for 30 min (37 °C) in the presence or the absence of different SHP-1 or SHP-2 inhibitor or activator, followed by cell lysis and assays of PTP activity. FIG. 3A depicts SHP-1 activity regulation mechanisms. […] FIG. 3E depicts that PKCθ negatively regulates SHP-1 activity at a moderate level.

STAT1 and Erk1/2 = test: Pulse inhibition of SHP-1, STAT1 and Erk1/2 phosphorylation (WB); assay type: cell-based, murine; details: IFNγ/LPS, immediately after treatment
Protocol: FIGS. 4A and 4B depict that pulse inhibition of SHP-1 transiently enhances proinflammatory signal transduction in macrophages. FIG. 4A: murine macrophages (bone marrow derived macrophages, or “BMDM”) were treated with TPI-1 for 15 min followed by wash to complete removal of TPI-1. At different time points after the TPI-1 treatment, macrophages were stimulated with IFNγ/LPS in the presence of alive cancer cells (1:1 ratio to BMDM) for 20 min prior to cell lysis and assaying SHP-1 activity using pNpp and WB detecting total and phosphorylated STAT1 and Erk1/2. FIG. 4B: the same setting as in FIG. 4A, except that after TPI-1 treatment, TPI-1 in medium was partially removed (50%) or without removal, followed by macrophage stimulation with IFNγ/LPS at different time points.

MC38 solid tumor = test: Cytokine secretion of excised MC38 tumor cubes (ELISA); design: species or system murine; details: 100 nM, 24 h
From the text: FIGS. 6A-6D depict that the inhibition of SHP-1 promotes anti-tumor effects or pro-tumor effects under different circumstances. FIG. 6A depicts that intratumoral macrophages upregulate expression of iRs (Pir-B, Siglec E, F and G, and SIRPα) along with tumor progression to late-stage large sizes. KPC pancreatic tumors of small sizes (<150 mm^3) and those grown to larger sizes (>800 mm^3) were dissociated to single cells, followed by flow cytometry analyses for cell surface protein expression on macrophages (gated F4/80+). FIG. 6B depicts that the inhibition of SHP-1 alone promotes TME immunosuppression. Excised MC38 solid tumor cubes were treated with SHP-1 inhibitor TPI-1 (100 nM) or vehicle (DMSO) in a cell culture setting. After 24 h, tumor secreting cytokines into the culture medium were assayed by ELISA.

KPC pancreatic tumor = test: Cytokines, antigen presentation and chemokines in KPC tumor after treatment; assay type: in vivo, murine
From the text: FIGS. 7A-7F depict that the inhibition of SHP-1 unleashes proinflammatory response and antigen presentation in solid tumor upon therapies. […] Low PTP/SHP-1 activity was found in untreated, homeostatic tumor. […] Similar data were obtained by studying colorectal carcinoma MC38.

MC38 tumor = test: Ex vivo treatment of excised MC38 tumor; design: species or system murine; details: TPI-1 and αTLR
From the text: FIGS. 8A-8E depict that SHP-1 inhibition combined with TLR agonists (αTLR) reprograms TME of MC38 colorectal carcinoma. FIG. 8A depicts MC38 tumor treatment scheme.
Consistent with these changes, TME analyses of MC38 colorectal and KPC pancreatic tumors treated with TLR agonist combined with TPI-1 or RT (FIGS. 8A-8E & 9) found rapid infiltration of inflammatory neutrophils (ROShigh) and tumor-killing NK cells (Granzhigh), and the strong antigen presentation also brought about the expansion of tumor-specific (p15E-reactive) cytotoxic T cells harboring high tumoricidal capacity (Granzhigh). The immunosuppressive compartments in the same TME, including MDSC and Treg, were reduced. […] Ex vivo infusion of TLR agonists and TPI-1 together, but not each individually, into excised tumors induced the similar response of T cell expansion.

[2] = tested on: KPC pancreatic ductal adenocarcinoma; test: TME analysis of KPC pancreatic ductal adenocarcinoma with tumor-focal RT; assay type: in vivo, murine; details: TPI-1 combined RT
From the text: FIGS. 9A-9C depict that the inhibition of SHP-1 by TPI-1 combined with tumor-focal RT reprogram TME of KPC pancreatic ductal adenocarcinoma towards proinflammatory cancer elimination. FIG. 9A depicts treatment scheme and TME analyses on day 5. The table depicts the percentages of various populations within total CD45+ cells. The bar graph depicts the percentages of various populations within total cells.

[3] = tested on: KPC pancreatic adenocarcinoma; test: Study-1: continuous vs intermittent iSHP-1 with TLR agonists, efficacy; assay type: in vivo, mice; details: 1, 3 and 10 mg/kg i.p., with CpG plus PolyI:C
Protocol: FIGS. 11A-11E depict the impact of continuous or intermittent iShp-1 treatment on the efficacy and adverse toxicity. FIG. 11A depicts the study design. Mice with KPC pancreatic cancer were either continuously treated with TPI-1 (1× per day) or in an intermittent fashion with gapping days between two treatments (intermittent). Three doses, 1, 3 and 10 mg/kg (i.p.), were tested and TLR agonists (CpG plus PolyI:C, each 10 μg, i.p., 1× every 3 day) was given to kickstart inflammatory response. […] Tumor imaging (FIG. 11B) and volume change records (FIG. 11C) indicate similar efficacies of iShp-1 with continuous or intermittent schemes.
Tumor model: Single engraftment of KPC pancreatic adenocarcinoma
Treatments & dosing strategies: i) iSHP-1—TPI-1, 1, 3, and 10 mg/kg; i.p. either 1× per day (continuous), or following an intermittent schedule depicted in FIG. 11. ii) TLR agonists (αTLR)—CpG, PolyI:C, each 10 μg; i.p. every 3 days

solid tumors = test: Intermittent period after TPI-1 combined therapy in tumors; assay type: in vivo, murine; details: TPI-1 combined with TLR agonists or RT
From the text: Furthermore, these analyses of the TME immune landscape changes following TPI-1 combined therapies informed our design of the pulse-intermittent SHP-1 inhibition strategy for metastatic solid tumors. […] Along with macrophage reduction, tumor-associated SHP-1 activities also dwindled, a change that ousted the necessity of continuous TPI-1 application. This “intermittent” period lasted 3-6 days, a length dependent on TPI-1 and TLR agonists/RT dosages, as well as tumor type and stage prior to treatment. […] Consistent with these changes, the tumors after the intermittent period were reverted to growth, unless another cycle of TPI-1 combined therapy was applied, which were again effectively suppressing tumors.

[4] = with αTLR or RT, single dose TPI-1
[5] = with αTLR or RT, single dose TPI-1, 6-18 h

For `O=C1C=CC(=O)C(c2cc(Cl)ccc2Cl)=C1` [TPI-1], the “PTP activity diminished in macrophages” value [1] was over 70%, the “pSTAT-1 and pErk1/2” value (STAT1 and Erk1/2) was “increased pSTAT-1 and pErk1/2” and the “tumor production of IL-6” value (MC38 solid tumor) was “increased tumor production of IL-6 and IL-10”. The “tumor production of IL-10” value (MC38 solid tumor) was “increased tumor production of IL-6 and IL-10”, the “proinflammatory cytokines in tumor” value (KPC pancreatic tumor; with TLR agonists or RT, single dose TPI-1, 6-18 h post treatment) was “high expression of proinflammatory cytokines” and the “TGFRs and CCL2 in TME” value (KPC pancreatic tumor; [4]) was “reduced”. The “chemokines that attract neutrophils, NK and T cells” value (KPC pancreatic tumor; [4]) was “increased in the TME”, the “IL-10 and TGFβ in tumor” value (KPC pancreatic tumor; [5]) was “abating IL-10 and TGFβ” and the “antigen presentation markers of intratumoral macrophages” value (KPC pancreatic tumor; [5]) was “elevated cell surface markers MHC-I, MHC-II, and costimulatory molecules CD80, CD86, CD40, OX40L”. For the same compound, the “CD8 T cell expansion in excised tumor” value (MC38 tumor) was “induced CD8 T cell expansion”, the “CD8 T cell expansion and p15E reactivity” value [2] was “marked expansion of CD8 T cells with significant high frequency of reactivity to tumor-specific antigen p15E” and the intratumoral macrophage phenotype [2] was “proinflammatory phenotype and increased antigen presentation capacity”. The “immune cell infiltration in TME” value ([2]; day 5) was “induced neutrophil (PMN) infiltration, NK cell increases and CD8 T cell expansion”, the tumor response [3] was “restrained KPC pancreatic tumor growth and induced tumor regression” and the “length of intermittent period with reduced macrophages and tumor growth restraint” value (solid tumors) was 3 to 6 days.
